How the values were obtained:
Amyloid β 1–40 H14A [1] = assay: SPR; preformed fibrils immobilised on a CM5 chip by amine coupling (3500 RU), probed with monomers of the same variant; monomer onto fibril end; 25 °C, 20 μL/min, 20 mM phosphate pH 7.4, 150 mM NaCl; slow phase of dissociation only; KD = RD/RA x KD of Aβ1-40 wt (100 nM, from earlier work)
Amyloid β 1–40 H14A [2] = assay: SPR; preformed fibrils immobilised on a CM5 chip by amine coupling (3500 RU), probed with monomers of the same variant; monomer onto fibril end; 25 °C, 20 μL/min, 20 mM acetate pH 5.5, 150 mM NaCl; slow phase of dissociation only; KD = RD/RA x KD of Aβ1-40 wt (1 nM, from earlier work)
[3] = tested on: immobilised Aβ fibrils / fibrillar end; assay: Fibril stability (KD, RD/RA, potentiation factor) from SPR association and dissociation; type: binding; conditions: 25 °C, relative to Aβ1–40 wt
Experimental: (§1) The interaction study between the fibrillar form of Aβ and its monomeric form was performed using a BIAcore® 3000 biosensor (GE Healthcare®, Uppsala, Sweden) equipped with a CM5 sensor chip (GE Healthcare®). First, the fibrillar form of Aβ was immobilised at a density of 3500 response units (RUs) on the dextran layer of the chip using standard amino coupling reagents at pH 4.0. All SPR experiments were performed at 25 °C at a flow rate of 20 μL·min^−1 in either a 20 mM phosphate buffer (pH 7.4) or 20 mM acetate buffer (pH 5.5). All experiments were performed in the presence of 150 mM NaCl, which represents a physiological ion‐strength.
(§2) All sensograms were corrected for nonspecific interactions using a reference surface according to standard procedures 16.
While a simple interaction between, for example, a receptor and ligand can easily be determined through saturation experiments, this cannot be done with polymers since they, per definition, cannot be saturated.
This problem can, however, be circumvented by defining the concentration of free monomers where the fibrils are at steady state, i.e. the concentration of free monomers where neither association nor dissociation can be detected. We have previously shown that the KD for Aβ1–40 wt at neutral pH is around 100 nM and around 1 nM at pH 5.5 11, 13. The KD at neutral pH has also been investigated by Hasegawa and co‐workers 14 with similar results. All figures used here are therefore given as relative values to the KD for Aβ1–40 wt corresponding to 100 nM at neutral pH and 1 nM at pH 5.5.
Multiplying the relative RD/RA with the KD for Aβ 1–40 wt will then give the KD for the histidine derivatives.

[4] = tested on: corresponding immobilised fibrils (fibrillar form of Aβ); assay: SPR dissociation rate k(off) of Aβ fibrils, slow phase, relative to Aβ1–40 wt; type: binding; conditions: 150 mM NaCl, 25 °C, after 2 μM monomer injection, slow phase, points before 100 s excluded, one exponential decay, Aβ1–40 wt = 1
Experimental: (§3) Recombinant variants of Aβ1–40, Aβ1–40 H6A, Aβ1–40 H13A, Aβ1–40 H14A and Aβ1–40 H6A, H13A, H14A were obtained from AlexoTech (Umeå, Sweden). All lyophilised peptides were solubilised in 20 mM NaOH and separated by size‐exclusion chromatography (Superdex 10/300, GE Life Science, Uppsala, Sweden) in PBS with 2 mM EDTA, 5 mM NaOH and 150 mM NaCl. The pH of all purified peptide solutions was adjusted using a stock solution of phosphate or acetate buffer to give a final buffer concentration corresponding to 20 mM phosphate (pH 7.4) or acetate (pH 5.5) and 150 mM NaCl.
as §1, §2
Note that the dissociation phase exposes a biphasic curvature. This is highly representative and frequently observed when performing these kinds of experiments. […] All analyses of decay rates within this work are therefore exclusively focused on the slower second phase of dissociation.
In contrast to the association rate, kon, the rate of dissociation, koff, is independent of the concentration of monomers. Subsequent to probing, the immobilised fibrils with free monomers, the rate of dissociation can be seen as a decrease in the signal over time.
Because the latter part of the curve, representing the slower phase of dissociation (indicated by arrow 3 Fig. 1), strongly dominates the interaction strength, we have exclusively focused on this part, and no points before 100 s were included in the curve. The dissociation curve could then be fitted to a one exponential decay.

[5] = tested on: corresponding immobilised fibrils (fibrillar form of Aβ); assay: SPR association rate k(on) of Aβ monomers onto immobilised fibrils, relative to Aβ1–40 wt; type: binding; conditions: 150 mM NaCl, 25 °C, 20 μL·min^−1, CM5 chip, fibrils at 3500 RU, end state after 60 s injection, Aβ1–40 wt = 1
Experimental: as §3, §1
Due to the polymeric nature of amyloid fibrils, the covalent immobilisation on the sensor chip, likely only occurs in minor fraction of the accessible amino groups. This treatment is therefore not anticipated to influence the overall incorporation of monomers in a significant manner. However, the influence from using immobilised fibrils or the dextran layer cannot be fully excluded and should therefore be disclosed.
as §2
Probing free monomeric Aβ against immobilised fibrils using SPR is a frequently used technique for measuring the intrinsic kinetic properties of Aβ polymerisation 11, 14, 17, 18, 19.
Fibrils from recombinant variants of Aβ1–40, Aβ1–40 H6A, Aβ1–40 H13A, Aβ1–40 H14A and Aβ1–40 H6A, H13A, H14A were prepared by prolonged incubation in either PBS (pH 7.4) or acetate buffer pH 5.5 containing 150 mM NaCl. Fibrils immobilised on a CM5 chip were then probed with their monomeric counterpart at different concentrations of Aβ monomers and analysed by SPR. Samples were injected for exactly 60 s and the maximal value at the end state of each injection (indicated by arrow 1 in Fig. 1A) was plotted as a function of the monomeric concentration, Fig. 2. This generates an association rate at each point of measurement. A guideline is given in the figures to illustrate the linearity.
By comparing the rate between the different Aβ variants, it is possible to determine relative differences in k(on).

Amyloid β 1–40 H6A [6] = assay: SPR; preformed fibrils immobilised on a CM5 chip by amine coupling (3500 RU), probed with monomers of the same variant; monomer onto fibril end; 25 °C, 20 μL/min, 20 mM phosphate pH 7.4, 150 mM NaCl; slow phase of dissociation only; KD = RD/RA x KD of Aβ1-40 wt (100 nM, from earlier work)
Amyloid β 1–40 H6A [7] = assay: SPR; preformed fibrils immobilised on a CM5 chip by amine coupling (3500 RU), probed with monomers of the same variant; monomer onto fibril end; 25 °C, 20 μL/min, 20 mM acetate pH 5.5, 150 mM NaCl; slow phase of dissociation only; KD = RD/RA x KD of Aβ1-40 wt (1 nM, from earlier work)

RD/RA ([3]; pH 5.5, 150 mM NaCl)	RD/RA ([3]; pH 7.4, 150 mM NaCl)	Substance	RD, relative dissociation (k(off) versus Aβ1–40 wt) ([4]; pH 5.5, 20 mM acetate)	RD, relative dissociation (k(off) versus Aβ1–40 wt) ([4]; pH 7.4, 20 mM phosphate)	RA, relative association (k(on) versus Aβ1–40 wt) ([5]; pH 5.5, 20 mM acetate)	RA, relative association (k(on) versus Aβ1–40 wt) ([5]; pH 7.4, 20 mM phosphate)	also measured
		Amyloid β 1–40 H14A (peptide)					Kd (Amyloid β 1–40 H14A [1]): 794 nM; RA (association rate relative to Aβ1-40 wt) (Amyloid β 1–40 H14A [1]): 0.34; RD (dissociation rate relative to Aβ1-40 wt) (Amyloid β 1–40 H14A [1]): 2.7; Kd (Amyloid β 1–40 H14A [2]): 2.19 nM; RA (association rate relative to Aβ1-40 wt) (Amyloid β 1–40 H14A [2]): 1.01; RD (dissociation rate relative to Aβ1-40 wt) (Amyloid β 1–40 H14A [2]): 2.22
2.11	7.16	Aβ1–40 H13A	2.13	2.22	1.01	0.31	
1.43	4.27	Aβ1–40 H6A	2.78	1.92	1.94	0.45	
5.31	12.27	Aβ1–40 H6A, H13A, H14A: recombinant Aβ1–40 variant where all three histidines have been exchanged for alanine (DAEFRADSGYEVAAQKLVFFAEDVGSNKGAIIGLMVGGVV; Amyloid-beta protein 40; UniProt P05067 672-711, looked up, variant H6A H13A H14A)	8.33	2.70	1.57	0.22	
		Amyloid β 1–40 H6A (peptide)					Kd (Amyloid β 1–40 H6A [6]): 427 nM; RA (association rate relative to Aβ1-40 wt) (Amyloid β 1–40 H6A [6]): 0.45; RD (dissociation rate relative to Aβ1-40 wt) (Amyloid β 1–40 H6A [6]): 1.92; Kd (Amyloid β 1–40 H6A [7]): 1.43 nM; RA (association rate relative to Aβ1-40 wt) (Amyloid β 1–40 H6A [7]): 1.94; RD (dissociation rate relative to Aβ1-40 wt) (Amyloid β 1–40 H6A [7]): 2.78
